Data as given in US4775662A, “Leukotriene antagonists” (SmithKline Beckman Corporation, priority 1987, dated 1988).
Structures can show the parent of a compound that is named as a salt.

Legend:
[1] = test system: leukotriene (LTD4) induced bronchoconstriction in guinea pigs; assay: In vivo inhibition of LTD4-induced bronchoconstriction in anesthetized, spontaneously breathing guinea pigs (airway resistance, RL); design: species or system guinea pig (adult male albino Hartley strain); conditions: Cavia porcellus, intravenous, LTD4 challenge, guinea pig, read-out: RL (average % inhibition of change in airway resistance)
Procedure: (§1) The leukotriene antagonist activity of the compounds of this invention is measured by the ability of the compound to inhibit leukotriene induced contraction of guinea pig tracheal tissues in vitro and to inhibit leukotriene induced bronchoconstriction in guinea pigs in vivo. The following methodologies were employed:
(§2) Calculations: The averages of the triplicate LTD4 concentration-response curves both in the presence and absence of the test compound were plotted on log graph paper. The concentration of LTD4 needed to elicit 30% of the contraction elicited by carbachol was measured and defined as the EC30. The pA2 value for the test compound was determined by the following equations: [formula] In vivo: Anesthetized, spontaneously breathing guinea pigs (Adult male albino Hartley strain) were monitored on a Buxco pulmonary mechanics computer. Changes in airway resistance (RL) were calculated by the computer on a breath-by-breath basis at isovolumic points from signals measuring airflow and transpulmonary pressure using differential pressure transducers. Animals received either test compound or vehicle control intravenously via the jugular vein. LTD4 was then injected into the jugular vein. The bronchoconstriction produced was reflected by % changes in airways resistance relative to the baseline values obtained prior to injection of the test compound or vehicle control. Each guinea pig received either vehicle control or test compound.
Calculations: The average of 3-6 animals per treatment was calculated using the % changes in the pulmonary parameters for control and test compound-treated animals. The average % inhibition by the test compound was calculated from the following equation: [formula]

[2] = biological target: T1, leukotriene D4 (LTD4) induced contraction of guinea pig tracheal tissues (Cavia porcellus, UniProt Q2NNR5); assay: In vitro inhibition of LTD4-induced contraction of guinea pig tracheal spiral strips (pA2); format: cell-based, guinea pig (adult male albino Hartley strain); conditions: for Kb: In vitro, LTD4, guinea pig trachea, EC30 relative to carbachol, 30 min pretreatment
T1 construct: Guinea pig (adult male albino Hartley strain) tracheal spiral strips; from tissue; host or cells: guinea pig trachea (spiral strips, adult male albino Hartley strain)
T1 sequence (Q2NNR5 1-340): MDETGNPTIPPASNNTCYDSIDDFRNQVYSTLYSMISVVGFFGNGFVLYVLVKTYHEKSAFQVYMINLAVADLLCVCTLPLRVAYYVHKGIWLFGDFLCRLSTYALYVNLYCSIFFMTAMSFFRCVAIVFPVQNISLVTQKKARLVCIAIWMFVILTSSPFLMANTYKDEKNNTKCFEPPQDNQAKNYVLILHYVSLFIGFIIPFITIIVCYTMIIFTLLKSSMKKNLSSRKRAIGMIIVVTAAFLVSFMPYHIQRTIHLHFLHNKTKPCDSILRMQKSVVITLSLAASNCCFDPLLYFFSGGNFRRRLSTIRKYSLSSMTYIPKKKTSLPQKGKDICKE
Procedure: as §1
In vitro: Guinea pig (adult male albino Hartley strain) tracheal spiral strips of approximate dimensions 2 to 3 mm cross-sectional width and 3.5 cm length were bathed in modified Krebs buffer in jacketed 10 ml tissue bath and continously aerated with 95% O2 /5% CO2. The tissues were connected via silk suture to force displacement transducers for recording isometric tension. The tissues were equilibrated for 1 hr., pretreated for 15 minutes with meclofenamic acid (1 μM) to remove intrinsic prostaglandin responses, and then pretreated for an additional 30 minutes with either the test compound or vehicle control. A cumulative concentration-response curve for LTD4 on triplicate tissues was generated by successive increases in the bath concentration of the LTD4. In order to minimize intertissue variability, the contractions elicited by LTD4 were standardized as a percentage of the maximum response obtained to a reference agonist, carbachol (10 μM).
as §2

SMILES | inhibition in vivo at 10 mg/kg [1] [%] | Kb [2] [µM] | partial agonist (footnote to pA2) ([2]; footnote (c) to pA2 5.0) | inhibition in vivo at 5 mg/kg [1] [%]
CCCCCCCCCCCC/C=C\C(CCCC(=O)O)SCCC(=O)O (centres unmarked) [Example 11, 5-[(2-carboxyethyl)thio]-6(Z)-non-adecenoic acid] | 98 | 3.16 |  | 
CCCCCCCCCCCC/C=C\[C@@H](SCC(N)C(=O)NCC(=O)O)[C@@H](O)CCC(=O)O (single isomer, unassigned; isomer 5) [Example 1(i) 4(S),5(R) isomer, 5-[(2-amino-3-carboxymethylamino-3-oxopropyl)thio]-4-hydroxy-6(Z)-nonadecenoic acid] |  | 10 | partial agonist | 
CCCCCCCCCCCC/C=C\C(CCC(=O)O)SCCC(=O)O (centres unmarked) [Example 16, 4-[(2-carboxyethyl)thio]-5(Z)-octadecenoic acid] |  | 0.251 |  | 
CCCCCCCCCCCC/C=C\[C@H](SCCC(=O)O)[C@H](O)CCC(N)=O (relative stereo) [Example 12, 5-[(2-carboxyethyl)thio]-4-hydroxy-6(Z)-nonadecenamide] |  | 3.98 |  | 
CCCCCCCCCCCC/C=C\[C@H](SCCC(=O)O)[C@H](O)CCC(=O)O (relative stereo) [Example 2, 4-hydroxy-5-[(2-carboxyethyl)thio]-6(Z)-nonadecenoic acid] |  | 0.631 |  | 91
CCCCCCCCCCCC/C=C\C(SCC(N)C(=O)NCC(=O)O)C(O)CCC(N)=O (centres unmarked) [Example 13] |  | 12.6 |  | 
CCCCCCCCCCCC/C=C\[C@H](SCCC(N)=O)[C@H](O)CCC(=O)O (relative stereo) [Example 7, 5-[[2-(aminocarbonyl)ethyl]thio]-4-hydroxy-6(Z)-nonadecenoicacid] |  | 7.94 |  | 38
CCCCCCCCCCCC/C=C\[C@H](SCC(N)C(=O)NCC(N)=O)[C@H](O)CCC(=O)O (some centres unmarked) [Example 9] |  | 3.16 |  | 98
CCCCCCCCCCCC/C=C\[C@H](SCCC(=O)NCC(=O)O)[C@H](O)CCC(=O)O (relative stereo) [Example 3, 5-[(3-carboxymethylamino-3-oxopropyl)thio]-4-hydroxy-6(Z)-nonadecenoic acid] |  | 0.631 |  | 36
CCCCCCCCCCCC/C=C\[C@H](SCC(N)C(=O)O)[C@H](O)CCC(=O)O (stereo partly drawn) [Example 8(c), 4(R)-Hydroxy-5(S)-[(2-amino-2-carboxyethyl)thio]-6(Z)-nonadecenoic acid, sodium salt] |  | 7.94 |  | 
CCCCCCCCCCCC/C=C\[C@H](SCCC(=O)N(C)CC(=O)O)[C@H](O)CCC(=O)O (relative stereo) [Example 4, 5-[(3-carboxymethyl-N-methylamino-3-oxopropyl)thio]-4-hydroxy-6(Z)-nonadecenoic acid] |  |  |  | 90
CCCCCCCCCCCC/C=C\[C@H](SCCCC(=O)O)[C@H](O)CCC(=O)O (relative stereo) [Example 6, 5-[(3-carboxypropyl)thio]-4-hydroxy-6(Z)-nonadecenoic acid] |  | 0.631 |  | 88
CCCCCCCCCCCC/C=C\[C@H](SCC(N)C(=O)NCC(=O)O)[C@H](O)CCC(=O)O (single isomer, unassigned; isomer 4) [Example 1(i) 4(R),5(S) isomer, hydrate] |  | 6.31 |  | 96
CCCCCCCCCCCC/C=C\[C@H](SCC(=O)O)[C@H](O)CCC(=O)O (relative stereo) [Example 5, 5-[(carboxymethyl)thio]-4-hydroxy-6(Z)-nonadecenoic acid] |  | 1.26 |  | 
CCCCCCCCCCCC/C=C\[C@@H](SCC(N)C(=O)O)[C@@H](O)CCC(=O)O (stereo partly drawn) [Example 8(d), 4(S)-Hydroxy-5(R)-[(2-amino-2-carboxyethyl)thio]-6(Z)-nonadecenoic acid, sodium salt] |  | 7.94 |  | 
CCCCCCCCCC/C=C\[C@H](SCCC(=O)O)[C@H](O)CCC(=O)O (relative stereo) [Example 14, 4-hydroxy-5-[(2-carboxyethyl)thio]-6(Z)-heptadecenoic acid] |  | 5.01 |  | 
CCCCCCCCCCCCCC/C=C\[C@H](SCCC(=O)O)[C@H](O)CCC(=O)O (relative stereo) [Example 15, 4-hydroxy-5-[(2-carboxyethyl)thio]-6(Z)-heneicosenoic acid] |  | 7.94 |  | 
CCCCCCCCCCCC/C=C\C(SCCC(=O)O)C(O)CC(=O)O (centres unmarked) [Example 10, 3-hydroxy-4-[(2-carboxyethyl)thio]-5(Z)-octadecenoic acid] | 88 |  |  | 
